# Data from patent US20150282489A1, “SYNERGISTIC FUNGICIDAL COMPOSITIONS CONTAINING LACTOPEROXIDASE SYSTEM” (DSM IP ASSETS B.V., priority 2012, published 2015).
# Assays:
# [1] = tested on: powdery mildew spores (spores of Oidium neolycopersici); assay: Treatment of tomato plants against mildew disease (Example 1, natamycin and lactoperoxidase system mixed before application); assay type: in vivo, Oidium neolycopersici on tomato plants
# Description: (§1) Tomato plants were grown in a greenhouse using well known methods. Twenty-five days after planting, the tomato plants were inoculated with powdery mildew spores (spores of Oidium neolycopersici). Fourteen days after the tomato plants were inoculated with the spores, the plants were treated with: a) a composition comprising natamycin (1500 ppm), b) a composition comprising a lactoperoxidase system, or c) a composition comprising natamycin (1500 ppm) and a lactoperoxidase system (natamycin and the lactoperoxidase system were mixed before application to the tomato plants). As a control, untreated tomato plants were used. All compositions comprising natamycin comprised glycerol (2.5 ml/l ) and polyether trisiloxane (BREAK-TRU®; 0.25 ml/l ). The lactoperoxidase system comprised lactoperoxidase, potassium iodide, potassium thiocyanate and a hydrogen peroxide source. When the lactoperoxidase system was used alone, ADDIT, a rapeseed-oil based adjuvant, was added to the lactoperoxidase system. The tomato plants were sprayed with 2000 lof the respective composition per ha, corresponding to a rate of about 130 ml of the respective composition per plant. The trial was performed on four plots with each plot containing 5 tomato plants. Powdery mildew growth was assessed in a twofold manner: (i) the number of visible colonies on 2 marked leafs of each tomato plant were counted; and (ii) the antifungal activity (in %) of the individual and combined active ingredients was determined by calculating the reduction in mould growth observed on the marked leafs of the tomato plants that were treated with the antifungal composition in comparison to the mould growth on the marked leafs of the tomato plants that were treated with the control composition. The expected antifungal activity (E in %) of the combined antifungal composition comprising both active ingredients was calculated according to the Colby equation (Colby, 1967): E=X+Y−[(X·Y)/100] wherein X and Y are the observed antifungal activities (in %) of the individual active ingredients X and Y, respectively. If the observed antifungal activity (O in %) of the combination exceeds the expected antifungal activity (E in %) of the combination and the synergy factor O/E is thus >1.0, the combined application of the active ingredients leads to a synergistic antifungal effect.
# [2] = tested on: powdery mildew spores (spores of Oidium neolycopersici); assay: Treatment of tomato plants against mildew disease (Example 2, lactoperoxidase system applied first, natamycin after one hour); assay type: in vivo, Oidium neolycopersici on tomato plants
# Description: as §1, with “with:” for “with: a) a composition comprising natamycin (1500 ppm), b) a composition comprising a lactoperoxidase system, or c) a composition comprising natamycin (1500 ppm) and a lactoperoxidase system (natamycin and the lactoperoxidase system were mixed before application to the tomato plants). As a control, untreated tomato plants were used.”, “effect. The experiment was done as described in Example 1, with the proviso that first of all the lactoperoxidase system was applied to the tomato plants and after one hour (when the tomato plants were dry again) the natamycin composition was applied.” for “effect.”
smiles,measurement,setting,value
"C[C@@H]1C/C=C/C=C/C=C/C=C/[C@H](O[C@@H]2O[C@H](C)[C@@H](O)[C@H](N)[C@@H]2O)C[C@@H]2O[C@](O)(C[C@@H](O)C[C@H]3O[C@@H]3/C=C/C(=O)O1)C[C@H](O)[C@H]2C(=O)O [Natamcyin, natamycin]",Change in visible fungal colonies at 9 days after application,[1]; 9 days after application of the respective compositions,increase in visible fungal colonies
same,"Average number of fungal colonies per tomato leaf, Day 9","[1]; 9 days after application, natamycin 1500 ppm, spray 2000 l/ha",11.9
same,"Average number of fungal colonies per tomato leaf, Day −1","[1]; one day before application of the composition (baseline), natamycin 1500 ppm, spray 2000 l/ha",6.1
same,"Average number of fungal colonies per tomato leaf, Day 9 corrected for Day −1","[1]; positive = increase, negative = decrease from day −1 to day 9, natamycin 1500 ppm",5.8
same,Change in visible fungal colonies at 9 days after application,"[2]; 9 days after application, combination applied sequentially",increase in visible fungal colonies
same,"Average number of fungal colonies per tomato leaf, Day 9","[2]; 9 days after application, combination: lactoperoxidase system first, natamycin after one hour",11.9
same,"Average number of fungal colonies per tomato leaf, Day −1","[2]; one day before application (baseline), combination applied sequentially",6.1
same,"Average number of fungal colonies per tomato leaf, Day 9 corrected for Day −1","[2]; positive = increase, negative = decrease from day −1 to day 9, combination applied sequentially",5.8
